Here are results for 13 compounds from ChEMBL document CHEMBL4304747, “Structural Tailoring of a Novel Fluorescent IRE-1 RNase Inhibitor to Precisely Control Its Activity” (J Med Chem, 2019).

A short description of data set [1]: Stability in PBS/DMSO assessed as increase in fluorescence intensity at 10 uM. The class given is physicochemical. Particulars: buffer.
The target in data set [2] is Serine/threonine-protein kinase/endoribonuclease IRE1 (Mus musculus) (UniProt Q9EQY0). Nature of the data set: Binding affinity to IRE1 in mouse 5TGM1 cells assessed as inhibition of IRE1/XBP1 pathway activation by measuring reduction in XBP1s expression at 10 uM measured up to 24 hrs by immunoblot analysis. It counts as cell-based. A general note: A western blot detects proteins with antibodies after separation by electrophoresis.

Data set [3] has as its system 5TGM1. Nature of the data set: Cytotoxicity against mouse 5TGM1 cells assessed as growth inhibition at 20 uM measured after 4 days by XTT assay. It counts as functional, cell-based. On the technique in general: Formazan colour is commonly taken as a measure of viable cells.
Data set [4] in a line: Stability in PBS/DMSO assessed as increase in fluorescence intensity at 10 uM at 365 nm light illumination by fluorescence imaging analysis.
Data set [5] concerns the target Serine/threonine-protein kinase/endoribonuclease IRE1 (Mus musculus) (UniProt Q9EQY0). Put plainly: Binding affinity to IRE1 in mouse 5TGM1 cells assessed as inhibition of IRE1/XBP1 pathway activation by measuring reduction in XBP1s expression at 10 uM measured after 2 days by immunoblot analysis. It counts as cell-based.
The nature of data set [6]: Stability in PBS/DMSO assessed as compound decomposition by measuring decrease in fluorescence intensity at 10 uM measured after 48 hrs. It counts as physicochemical. Particulars: read-out: Drug degradation.
Data set [7] concerns the target Serine/threonine-protein kinase/endoribonuclease IRE1 (Mus musculus) (UniProt Q9EQY0). Put plainly: Binding affinity to IRE1 in mouse 5TGM1 cells assessed as inhibition of IRE1/XBP1 pathway activation by measuring reduction in XBP1s expression at 5 uM measured after 24 hrs by immunoblot analysis. It counts as cell-based.
A short description of data set [8]: Stability in RPMI media measured after 96 hrs by HPLC analysis. The class given is physicochemical.
Data set [9] concerns the target Serine/threonine-protein kinase/endoribonuclease IRE1 (Mus musculus) (UniProt Q9EQY0). Nature of the data set: Binding affinity to IRE1 in mouse 5TGM1 cells assessed as inhibition of IRE1/XBP1 pathway activation by measuring reduction in XBP1s expression at 10 uM irradiated with 1 mW/cm2 UV light for up to 10 mins and measured after 4 hrs by immunoblot analysis. The class given is cell-based.

A short description of data set [10]: Prodrug conversion in DMSO/PBS solution assessed as DF07 formation by measuring increase in fluorescence intensity at 10 uM irradiated with 1 mW/cm2 UV light relative to control. It counts as ADME.
Data set [11] is described as follows: Prodrug conversion in cytoplasm of mouse 5TGM1 cells assessed as DF07 formation by measuring increase in fluorescence intensity at 10 uM treated for 4 hrs measured 10 secs post irradiation with 50 mW DAPI filtered diode laser by confocal microscopic analysis. It counts as ADME, subcellular. Particulars: 5tgm1, 4 h.
Data set [12] can be described thus: Stability in pH 7.4 PBS/DMSO measured after 48 hrs by HPLC analysis. The class given is physicochemical. Particulars: buffer, pH 7.4, 48 h.
Data set [13] deals with Serine/threonine-protein kinase/endoribonuclease IRE1 (Mus musculus) (UniProt Q9EQY0). Put plainly: Binding affinity to IRE1 in mouse 5TGM1 cells assessed as inhibition of IRE1/XBP1 pathway activation by measuring reduction in XBP1s expression at 10 uM measured after 4 hrs by immunoblot analysis. The class given is cell-based.
Data set [14] shares this target. Put plainly: Binding affinity to IRE1 in mouse 5TGM1 cells assessed as inhibition of IRE1/XBP1 pathway activation by measuring reduction in XBP1s expression at 10 uM preincubated for 4 hrs followed by three times compound washout and subsequent 1 mW/cm2 UV irradiation for 10 mins measured after 8 hrs by immunoblot analysis. It counts as cell-based.
Data set [15] shares this target. Nature of the data set: Binding affinity to IRE1 in mouse 5TGM1 cells assessed as inhibition of IRE1/XBP1 pathway activation by measuring reduction in XBP1s expression at 10 uM measured after 3 days by immunoblot analysis. It counts as cell-based.
Data set [16] can be described thus: Drug metabolism in pH 7.4 PBS/DMSO assessed as 1,3-dioxane acetal hydrolysis measured after 48 hrs by HPLC analysis.
In data set [17] the test system is 5TGM1. Nature of the data set: Cytotoxicity against mouse 5TGM1 cells assessed as growth inhibition at 20 uM measured after 3 days by XTT assay. It counts as functional, cell-based.
Data set [18] is filed under the species Homo sapiens. Nature of the data set: Cytotoxicity against human WaC3 cells assessed as growth inhibition at 20 uM measured after 3 days by XTT assay. It counts as functional, cell-based.
A short description of data set [19]: Drug metabolism in RPMI media assessed as 1,3-dioxane acetal hydrolysis measured after 96 hrs by HPLC analysis.
The nature of data set [20]: Stability in PBS/DMSO assessed as change in fluorescence intensity at 10 uM at 460 nm. The class given is physicochemical. The settings on record: buffer.
In data set [21] the target is Serine/threonine-protein kinase/endoribonuclease IRE1 (Mus musculus) (UniProt Q9EQY0). Put plainly: Binding affinity to IRE1 in mouse 5TGM1 cells assessed as inhibition of IRE1/XBP1 pathway activation by measuring reduction in XBP1s expression at 2.5 uM measured up to 4 hrs by immunoblot analysis. The class given is cell-based.
The nature of data set [22]: Drug metabolism in RPMI media assessed as hydrolysis at measured up to 25 hrs by HPLC analysis.
The target in data set [23] is Serine/threonine-protein kinase/endoribonuclease IRE1 (Mus musculus) (UniProt Q9EQY0). Nature of the data set: Binding affinity to IRE1 in LPS-stimulated mouse primary B cells assessed as inhibition of IRE1/XBP1 pathway activation by measuring reduction in XBP1s expression at 2.5 to 5 uM measured after 2 hrs by immunoblot analysis.
Data set [24] can be described thus: Stability in PBS/DMSO assessed as change in fluorescence intensity at 10 uM. Particulars: buffer. The class given is physicochemical.
The species named for data set [25] is Homo sapiens. Put plainly: Cytotoxicity against human WaC3 cells assessed as growth inhibition at 20 uM measured after 1 day by XTT assay. The class given is functional, cell-based.

Activity calls are given as the source filed them. The calls are words filed in the database; no cut-off is given here.

Sequence of Serine/threonine-protein kinase/endoribonuclease IRE1 (Mus musculus) (Q9EQY0 whole entry): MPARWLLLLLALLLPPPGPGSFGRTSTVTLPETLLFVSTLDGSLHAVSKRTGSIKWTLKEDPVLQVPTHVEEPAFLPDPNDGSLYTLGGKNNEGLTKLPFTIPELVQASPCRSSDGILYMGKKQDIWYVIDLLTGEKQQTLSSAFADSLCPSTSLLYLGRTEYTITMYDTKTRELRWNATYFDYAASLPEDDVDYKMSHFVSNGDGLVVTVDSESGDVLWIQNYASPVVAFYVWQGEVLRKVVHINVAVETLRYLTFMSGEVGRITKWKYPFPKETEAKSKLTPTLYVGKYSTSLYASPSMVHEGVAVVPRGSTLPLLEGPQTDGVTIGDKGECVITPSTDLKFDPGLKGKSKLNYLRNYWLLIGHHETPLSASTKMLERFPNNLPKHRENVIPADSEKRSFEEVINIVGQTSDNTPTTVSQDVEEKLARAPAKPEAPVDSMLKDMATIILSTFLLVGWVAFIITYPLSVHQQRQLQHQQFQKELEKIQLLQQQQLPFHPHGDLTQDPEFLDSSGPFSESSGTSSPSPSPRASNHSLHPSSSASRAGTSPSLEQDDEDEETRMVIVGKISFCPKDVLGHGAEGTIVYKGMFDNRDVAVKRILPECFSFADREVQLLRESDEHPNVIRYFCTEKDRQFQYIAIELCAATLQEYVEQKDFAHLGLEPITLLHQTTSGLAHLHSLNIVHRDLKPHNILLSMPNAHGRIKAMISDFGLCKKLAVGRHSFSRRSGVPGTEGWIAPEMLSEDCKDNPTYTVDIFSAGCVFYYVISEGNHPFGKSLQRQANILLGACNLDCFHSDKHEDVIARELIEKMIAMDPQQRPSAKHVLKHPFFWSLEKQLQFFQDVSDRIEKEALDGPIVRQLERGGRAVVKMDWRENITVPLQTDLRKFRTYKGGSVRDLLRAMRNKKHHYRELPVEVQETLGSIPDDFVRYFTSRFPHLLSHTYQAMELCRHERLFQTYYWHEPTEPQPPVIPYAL

For `O=Cc1c(O)ccc2c3c(c(=O)oc12)CNCC3`, the Stability result in data set [1] and in data set [4] was “Stable” in each case. For the same compound, the inhibition result in data set [2] was “Active”. The “growth inhibition (GI)” value in the data set with 5TGM1 [3] was “Active”. Also, the inhibition entry in data set [5] was “inactive”.

`C=CCOC(=O)N1CCc2c(c(=O)oc3c(C=O)c(O)ccc23)C1`: the inhibition result in data set [2] is “Active”.

Regarding `O=c1oc2c(/C=N/N3CCCCC3)c(O)ccc2c2c1CNCC2`, the Stability entry in [1] is given as “Unstable”.

Consider `CC1(C)COC(c2c(O)ccc3c4c(c(=O)oc23)CNCC4)OC1`, for which, in [1], the Stability entry is “Stable”. Also, the degraded at 48 h, 10 µM in [6] is 60%. Also, in [7], the inhibition result was “Active”.

Consider `COc1cc2c3c(c(=O)oc2c(C2OCCCO2)c1OC(C)c1ccc(C(=O)OCC[Si](C)(C)C)cc1[N+](=O)[O-])CN(C)CC3` (stereo not given), for which the Stability entry in data set [8] and in data set [12] was “Stable” in each case. Moreover, the inhibition entry in [9] and in data set [14] was “Active” in each case. Moreover, the “fold change (FC)” value in data set [10] is recorded as 75. The Drug metabolism entry in [11] was “Metabolite_Detected”. For the same compound, the inhibition result in data set [13] is “inactive”.

On to `O=c1oc2c(C3OCCCO3)c(O)ccc2c2c1CNCC2`, for which the “growth inhibition (GI)” value in the data set with 5TGM1 [3] was “Active”. The degraded at 48 h, 10 µM in data set [6] came to 5.1%. In addition, the inhibition entry in [15] and in [7] was “Active” in each case.

Regarding `COc1cc2c3c(c(=O)oc2c(C2OCCCO2)c1O)CN(C)CC3`, the Drug metabolism in [16] and in [19] was 70% each time. The “growth inhibition (GI)” value in the data set on 5TGM1 [17] and in the data set listed under Homo sapiens [18] was “Active” each time. For the same compound, the Stability entry in data set [20] is given as “Stable”. For the same compound, the inhibition entry in data set [15] was “Active”. The inhibition result in data set [14] is “inactive”.

Take `CN1CCc2c(c(=O)oc3c(C4OCCCO4)c(O)ccc23)C1`: the inhibition entry in data set [21] and in data set [15] was “Active” each time. Further, in data set [1], the Stability entry is given as “Stable”. Moreover, the “growth inhibition (GI)” value in the data set with 5TGM1 [3], with 5TGM1 [17] and in the data set filed under Homo sapiens [18] was “Active” in each case. For the same compound, in data set [22], the Drug metabolism result is recorded as “Metabolite detected”.

For the compound `CN1CCc2c(c(=O)oc3c(C=O)c(O)ccc23)C1`, the Stability entry in [1] and in data set [4] was “Stable” each time. Besides, the inhibition result in data set [2] was “Active”. The “growth inhibition (GI)” value in the data set with 5TGM1 [3] and in the data set on 5TGM1 [17] was “Active” each time. Further, in data set [5], the inhibition entry is “inactive”.

Turning to `CN1CCc2c(c(=O)oc3c(/C=N/N4CCCCC4)c(O)ccc23)C1`, the Stability entry in data set [1] is on record as “Unstable”.

As for `COc1cc2c3c(c(=O)oc2c(C2OCCCO2)c1O)CNCC3`, the Stability result in data set [20] is “Stable”. The inhibition result in [15] was “Active”.

Regarding `CC(=O)N/N=C/c1c(O)ccc2c3c(c(=O)oc12)CN(C)CC3`, the inhibition result in [21], in data set [23] and in [15] was “Active” in each case. The Stability result in data set [1] is “Unstable”. Also, the “growth inhibition (GI)” value in the data set listed under Homo sapiens [18] was “Active”. In addition, the Drug metabolism result in data set [22] is listed as “Metabolite detected”.

In the case of `COc1cc2c3c(c(=O)oc2c(/C=N/NC(C)=O)c1O)CN(C)CC3`, the inhibition entry in [21] and in data set [15] was “Active” throughout. Further, the Stability entry in data set [24] was “Unstable”. Moreover, in the data set listed under Homo sapiens [25], the “growth inhibition (GI)” value is “Active”. In the data set listed under Homo sapiens [18], the “growth inhibition (GI)” value is “inactive”.
